# Data taken from patent US20230158071A1, “TUMOR COMBINED IMMUNOTHERAPY” (CRAGE medical Co., Limited, priority 2018, published 2023).
# How the values were obtained:
# 806-mCD28z-CAR-T cells = test: CCK8 proliferation assay, olaparib on CAR-T cells; assay type: cell-based, mouse
# Method: As an effective inhibitor of PARP1, olaparib may inhibit PARP1 to participate in DNA damage repair process. In mouse breast cancer cell lines and mouse T cells and CART cells, different levels of PARP1 expression are detected (FIG. 2B). Therefore, CCK8 proliferation assay is required to detect the effect of olaparib on proliferation of tumor cells and CART cells.
# 806-m28Z CAR-T cells in Example 1 are taken to spread in a 96-well plate with 1×10^4 cells per well and 100 μl medium. Breast cancer cells E0771-EGFRvIII and 4T1-EGFRvIII are taken to spread in a 96-well plate with 1×10^4 cells per well and 100 μl medium. Different concentrations of olaparib are taken to add to the cells to make 10 concentration gradients (i.e., the treatment concentrations of olaparib are respectively 50 μM, 20 μM, 10 μM, 5 μM, 2.5 μM, 1 μM, 0.1 μM, 0.01 μM, 0.001 μM, 0 μg/ml). After 48 hours of drug treatment for cells of different groups, 10 μl of CCK8 substrate color reagent (Dojindo) is added to each well; after incubating for 1 hour at 37° C., the absorbance at 450 nm is measured by a microplate reader, calculating the cell viability respectively.
# The formula for calculating the cell viability is as follows:
# Cell viability (%)=[A (adding drug)−A (blank)]/[A (without adding drug)−A (blank)]
# 4T1-EGFRvIII cells = test: LDH cytotoxicity assay, CAR-T killing of olaparib-treated 4T1-EGFRvIII cells; assay type: cell-based, mouse
# Method: The experimental groups for incubating with cells that are positive for the antigen target comprises the following 4 groups: UTD group, 806-mCD28z-CAR-T group (or denoted as 806-28Z), olaparib pretreatment group, and olaparib combined treatment group;
# the olaparib pretreatment group comprises: UTD+1 μM olaparib pretreatment group (or denoted as UTD+Olaparib 1 μM pretreatment), UTD+5 μM olaparib pretreatment group (or denoted as UTD+Olaparib 5 μM pretreatment), 806-mCD28z-CAR-T+1 μM olaparib pretreatment group (or denoted as 806-28Z+Olaparib 1 μM pretreatment). 806-mCD28z-CAR-T+5 μM olaparib pretreatment group (or denoted as 806-28Z+Olaparib 5 μM pretreatment); […]
# Olaparib pretreatment group: different concentrations of olaparib (1 μM, 5 μM) are added to the medium for culturing E0771-EGFRVIII or 4T1-EGFRvIII tumor cells respectively, culturing at 37° C. for 24 h, and then the cells are treated with trypsin and resuspended in fresh medium. The untreated mouse T cells and 806-mCD28z-CAR T cells in Example 1 are respectively taken to incubate with E0771-EGFRvIII or 4T1-EGFRVIII cells pretreated with different concentrations of olaparib at a ratio of 1:3, 1:1, and 3:1; 16 hours later, the secretion of LDH in the supernatant is detected by Cytox 96 Non-Radioactive Cytotoxicity Assay, then calculating the killing toxicity of 806-mCD28z CAR T cells to tumor cells pretreated with different concentrations of olaparib. […] Cytox 96 Non-Radioactive Cytotoxicity Assay (Promaga, REF: G1782); at the same time, the secretions of cytokines Granzyme B, IFN-γ, and IL-2 in the supernatant are detected by ELISA kit (Lianke Biotech Co. Ltd. CAT: 18^.22), for specific experimental procedures, referring to instructions of MouseGranzyme B, IFN-γ, IL-2 ELISA kit from Lianke Biotech Co, Ltd. […]
smiles,measurement,setting,value
O=C(c1cc(Cc2n[nH]c(=O)c3ccccc23)ccc1F)N1CCN(C(=O)C2CC2)CC1 [olaparib],proliferation of 806-mCD28z-CAR-T cells,806-mCD28z-CAR-T cells; 1 μM olaparib,not affected
same,inhibition rate of proliferation of 806-mCD28z-CAR-T cells,"806-mCD28z-CAR-T cells; 2.5 μM and higher concentration of olaparib, 48 hours, CCK8",~80%
same,concentration that may inhibit the growth of CAR-T cells,806-mCD28z-CAR-T cells; in vitro,higher than 2.5 μM
same,proliferation of 806-mCD28z-CAR-T cells,806-mCD28z-CAR-T cells; olaparib,inhibited
same,lethal effect on 4T1-EGFRvIII cells compared with the CAR-T single treatment group,4T1-EGFRvIII cells; 5 μM olaparib combined treatment group,higher synergistic lethal effect
same,promotion of the killing effect of CAR-T cells on 4T1-EGFRvIII cells,"4T1-EGFRvIII cells; 5 μM olaparib pretreatment group, better than 5 μM combined treatment group",most significant
same,killing effect of CAR-T cells on 4T1-EGFRvIII cells,"4T1-EGFRvIII cells; olaparib 1 μM or 5 μM, pretreatment or combined treatment, vs CAR-T alone, ratio 1:3, 1:1, 3:1, 16 hours, LDH",significantly improved
